Results taken from US11999676B2, “Vesicular monoamine transporter-2 ligands and their use in the treatment of psychostimulant abuse” (priority 2016, dated 2024).

Tests used:
VMAT2 = VMAT2 (Rattus norvegicus (Rat), UniProt Q01827); experiment: [3H]Dopamine ([3H]DA) uptake assay, vesicular preparation; type: biochemical; conditions: [3H]DA uptake, rat; read-out: VMAT2 (rat) Inhibition: Mean Ki ± Standard Deviation
[1] = Microsomal stability assay, human liver microsomes; conditions: for CLint scaled at 0.08 µM / half-life at 0.08 µM: both, human, pooled liver microsomes; for CLint scaled at 0.08 µM: pH 7.4, Microsomal stability assays: Clearance; for half-life at 0.08 µM: pH 7.4, Microsomal stability assays: Half-life
Experimental: (§1) Each plate holds triplicate samples of two controls (0.4 mM) and up to 14 compounds (0.08 mM) in rat and human liver microsomes. Aliquots of each well of the plate (175 μl of each well) were transferred from the master plate into 5 assay plates. For 0-hr time point, pre-cooled (4° C.) internal standard (437.5 μL, 2 μM caffeine in methanol) was added to the first plate before the reaction starts. NADPH regenerating system solution A (6.05 ml, Fisher Scientific, #NC9255727) was combined with NADPH regenerating system solution B (1.21 ml, Fisher Scientific, #NC9016235) in potassium phosphate buffer (15.8 ml, 0.1 M, pH 7.4, 37° C.). The resulting NADPH solution (43.8 μl) was added to each well of all the 96-well assay plates and mixed with pipette briefly making the final protein and compound concentrations respectively: 0.5 mg/ml, 0.08 μM (0.4 μM for controls). Plates were sealed, and all plates except the 0-hr plate were incubated at 37° C., shaken at a speed of 60 rpm. A single assay plate was tested at each time point: 0.5 hr, 1 hr, 2 hr, and 4 hr. At each time point, 437.5 μL of pre-cooled internal standard was added each well of the plate to quench the reaction. […] 120 μl supernatant was transferred to a 96-well plate, centrifuged again and analyzed by UPLC-MS (Waters Inc., Milford, MA). The compounds and internal standard were detected by selected ion recording (SIR).
(§2) The amount of material was measured as a ratio of peak area to the internal standard and graphed. Using the slope from the initial linear portion of this curve, the degradation rate constant is calculated using equation [1].

hERG channel = hERG channel (Homo sapiens (Human), UniProt Q12809); experiment: [3H]Dofetilide binding assay, HEK-293 cell membrane preparation; conditions: [3H]dofetilide, HEK-293 cell membranes; read-out: hERG Binding: Mean Ki ± Standard Deviation
Experimental: [^3H]Dofetilide binding assays were conducted using commercially available HEK-293 cell membranes which stably express the hERG channel. Membranes were suspended in assay buffer (50 mM Tris, 10 mM KCl, 1 mM MgCl2, pH 7.4) prior to the experiment. […] Aliquots of the HEK-293 cell membrane suspension which contained 5 μg membrane protein were added to tubes containing assay buffer, 5 nM [^3H]dofetilide and a range of concentrations of analog (10 nM-100 μM). Nonspecific binding was determined in the presence of amitriptyline (1 mM). Samples were incubated for 1 hr. at 24° C., followed by rapid filtration. […] The affinity for the [^3H]dofetilide binding site on the hERG channel expressed in the HEK-293 cellular membrane was determined from the analog concentration response curves.

[2] = Microsomal stability assay, rat liver microsomes; conditions: for CLint scaled at 0.08 µM / half-life at 0.08 µM: female, Sprague-Dawley, rat, liver microsomes; for CLint scaled at 0.08 µM: pH 7.4, Microsomal stability assays: Clearance; for half-life at 0.08 µM: pH 7.4, Microsomal stability assays: Half-life
Experimental: as §1, §2

Chain of hERG channel (Q12809 whole entry): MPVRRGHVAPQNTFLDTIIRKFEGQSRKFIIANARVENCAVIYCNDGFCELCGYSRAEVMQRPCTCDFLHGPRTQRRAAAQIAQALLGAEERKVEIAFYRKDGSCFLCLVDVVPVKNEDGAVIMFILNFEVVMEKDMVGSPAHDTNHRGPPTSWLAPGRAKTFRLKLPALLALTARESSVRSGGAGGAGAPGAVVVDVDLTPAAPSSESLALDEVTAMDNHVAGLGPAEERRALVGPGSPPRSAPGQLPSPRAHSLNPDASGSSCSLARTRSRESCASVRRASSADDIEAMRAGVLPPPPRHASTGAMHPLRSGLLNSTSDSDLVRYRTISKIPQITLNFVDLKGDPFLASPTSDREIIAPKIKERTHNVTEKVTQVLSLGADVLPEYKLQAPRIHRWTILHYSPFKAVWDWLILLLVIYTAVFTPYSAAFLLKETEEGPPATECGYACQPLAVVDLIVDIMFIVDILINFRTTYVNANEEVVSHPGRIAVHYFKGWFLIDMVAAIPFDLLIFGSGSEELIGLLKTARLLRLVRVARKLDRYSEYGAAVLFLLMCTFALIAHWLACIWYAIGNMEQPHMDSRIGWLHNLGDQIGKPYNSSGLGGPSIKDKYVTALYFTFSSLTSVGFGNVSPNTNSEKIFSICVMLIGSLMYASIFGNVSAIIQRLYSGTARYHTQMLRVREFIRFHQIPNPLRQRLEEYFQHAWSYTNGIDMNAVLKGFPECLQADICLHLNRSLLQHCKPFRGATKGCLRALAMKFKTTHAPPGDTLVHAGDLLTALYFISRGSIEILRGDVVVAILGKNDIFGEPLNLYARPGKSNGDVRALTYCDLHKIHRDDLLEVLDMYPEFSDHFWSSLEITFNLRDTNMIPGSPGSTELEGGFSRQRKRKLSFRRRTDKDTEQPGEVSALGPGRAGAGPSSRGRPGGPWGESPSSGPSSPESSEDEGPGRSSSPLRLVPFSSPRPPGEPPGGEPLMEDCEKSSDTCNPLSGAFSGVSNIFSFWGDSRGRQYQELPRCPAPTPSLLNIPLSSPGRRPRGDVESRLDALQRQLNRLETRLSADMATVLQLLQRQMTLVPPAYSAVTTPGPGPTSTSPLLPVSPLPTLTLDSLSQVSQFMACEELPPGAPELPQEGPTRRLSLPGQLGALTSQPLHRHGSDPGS

Row | SMILES | Ki (VMAT2) [nM] | CLint scaled at 0.08 µM [1] [mL/min/kg] | half-life at 0.08 µM [1] [min] | Ki (hERG channel) [nM] | further results
1 | CC(Cc1ccc([N+](=O)[O-])cc1)NCCCc1ccncc1 (centres unmarked) [Compound 113] | 157 ± 72.5 | 6.3 | 198 | – | –
2 | CC(Cc1ccc(Br)cc1)NCCCc1ccc(F)cc1 (centres unmarked) [Compound 200] | 15.2 ± 8.86 | – | – | 242 ± 76 | CLint scaled at 0.08 µM [2]: 186 mL/min/kg; half-life at 0.08 µM [2]: 18 min
3 | Nc1ccc(CCCNC(CF)Cc2ccc(F)cc2)cc1 (centres unmarked) [Compound 107] | 105 ± 0.189 | – | – | – | CLint scaled at 0.08 µM [2]: 82.2 mL/min/kg; half-life at 0.08 µM [2]: 36 min
4 | CC(Cc1ccc(F)cc1)NCCCc1ccc(I)cc1 (centres unmarked) [Compound 183] | – | < 5.2 | > 240 | – | –
5 | CC(Cc1ccc(F)c(F)c1)NCCCc1ccncc1 (centres unmarked) [Compound 97] | – | 11.9 | 102 | – | –
6 | CC(Cc1ccc(C(F)(F)F)cc1)NCCCc1ccc(O)cc1 (centres unmarked) [Compound 209] | 17.1 ± 6.86 | – | – | 252 ± 109 | –
7 | CCOC(=O)c1ccc(CCCNC(C)Cc2ccc(F)cc2)cc1 (centres unmarked) [Compound 159] | – | 216 | – | – | Microsomal stability assays: Half-life [1]: 6 min
8 | CC(Cc1ccc(F)cc1)NCCCc1ccc(I)cc1 (centres unmarked) [Compound 182] | 52.7 ± 6.35 | – | – | 512 ± 126 | Microsomal stability assays: Half-life [2]: 6 min; CLint scaled at 0.08 µM [2]: 375 mL/min/kg
9 | CC(Cc1ccncc1)NCCCc1ccc(O)cc1 (centres unmarked) [Compound 178] | 124 ± 29.4 | – | – | 5070 ± 71.4 | CLint scaled at 0.08 µM [2]: 89.3 mL/min/kg; half-life at 0.08 µM [2]: 30 min
10 | CC(Cc1ccc(-c2cncnc2)cc1)NCCCc1ccc(Cl)cc1 (centres unmarked) [Compound 170] | 6.74 ± 2.59 | – | – | 199 ± 64.9 | CLint scaled at 0.08 µM [2]: 34.2 mL/min/kg; half-life at 0.08 µM [2]: 84 min
11 | CC(Cc1ccc(F)cc1)NCCCn1cccn1 (centres unmarked) [Compound 132] | 709 ± 172 | – | – | – | CLint scaled at 0.08 µM [2]: 180 mL/min/kg; half-life at 0.08 µM [2]: 18 min
12 | CC(Cc1ccc(F)cc1)NCCCc1ccc(S(C)(=O)=O)cc1 (centres unmarked) [Compound 138] | 146 ± 41.9 | < 5.2 | > 240 | – | –
13 | CC(Cc1ccccc1)NCCCc1ccc(-c2cncnc2)cc1 (centres unmarked) [Compound 202] | 119 ± 31.8 | 155 | – | – | Microsomal stability assays: Half-life [1]: 6 min
14 | COc1ccc(CC(C)NCCCc2ccc(N)cc2)cc1 (centres unmarked) [Compound 57] | 68.9 ± 13.3 | – | – | 4250 ± 220 | –
15 | FCC(Cc1ccc(Br)cc1)NCCCc1ccc(F)cc1 (centres unmarked) [Compound 85] | 35.7 ± 7.32 | – | – | 1130 ± 711 | Microsomal stability assays: Half-life [2]: 6 min; CLint scaled at 0.08 µM [2]: 335 mL/min/kg
16 | CC(Cc1ccc(Cl)cc1)NCCCc1ccc(N)cc1 (centres unmarked) [Compound 63] | – | 11.6 | 108 | – | –
17 | FCC(Cc1ccc(F)cc1)NCCCc1ccc(F)cc1 (centres unmarked) [Compound 152] | 27.3 ± 12.8 | – | – | 5700 ± 2970 | CLint scaled at 0.08 µM [2]: 298 mL/min/kg; half-life at 0.08 µM [2]: 12 min
18 | CC(Cc1ccccc1)NCCCc1ccc(O)cc1 (centres unmarked) [Compound 223] | 5.01 ± 1.72 | – | – | 2750 ± 1080 | –
19 | CC(Cc1ccc(NC=O)cc1)NCCCc1ccc(F)cc1 (centres unmarked) [Compound 90] | 12.7 ± 2.85 | – | – | 738 ± 244 | Microsomal stability assays: Clearance [2]: 24.9 mL/min/kg; Microsomal stability assays: Half-life [2]: 114 min
20 | CC(Cc1ccc(F)cc1)NCCCc1ccc([N+](=O)[O-])cc1 (centres unmarked) [Compound 161] | – | < 5.2 | > 240 | – | –
21 | COc1ccc(CCC(C)NC(C)Cc2ccccc2)cc1 (centres unmarked) [Compound 198] | 152 ± 25.6 | – | – | – | Microsomal stability assays: Half-life [2]: 6 min; CLint scaled at 0.08 µM [2]: 414 mL/min/kg

Row | SMILES | Ki (VMAT2) [nM] | CLint scaled at 0.08 µM [1] [mL/min/kg] | half-life at 0.08 µM [1] [min] | Ki (hERG channel) [nM] | further results
22 | CC(Cc1ccc(C(F)(F)F)cc1)NCCCc1ccc(N)cc1 (centres unmarked) [Compound 54] | 61.8 ± 1.69 | – | – | 908 ± 102 | –
23 | CC(Cc1ccc(Br)cc1)NCCCc1ccc(Cl)cc1 (centres unmarked) [Compound 185] | – | < 5.2 | > 240 | – | –
24 | COc1ccc(CCC(C)NC(C)Cc2ccccc2)cc1 (centres unmarked) [Compound 199] | – | > 400 | < 6 | – | –
25 | CC(Cc1ccccc1)NCCCc1ccc(I)cc1 (centres unmarked) [Compound 212] | 22.2 ± 2.21 | – | – | 642 ± 168 | Microsomal stability assays: Clearance [2]: 439 mL/min/kg; Microsomal stability assays: Half-life [2]: 6 min
26 | CC(Cc1ccc(-c2cncnc2)cc1)NCCCc1ccc(Cl)cc1 (centres unmarked) [Compound 171] | – | 75.2 | 18 | – | –
27 | CC(Cc1ccc(F)cc1)NCCCc1ccc2[nH]ccc2c1 (centres unmarked) [Compound 56] | – | 106 | 12 | – | –
28 | CC(Cc1ccc(-c2cncnc2)cc1)NCCCc1ccc(F)cc1 (centres unmarked) [Compound 197] | – | 40.4 | 30 | – | –
29 | FCC(Cc1ccc(Br)cc1)NCCCc1ccc(F)cc1 (centres unmarked) [Compound 86] | – | 18.1 | 66 | – | –
30 | CC(Cc1ccc([N+](=O)[O-])cc1)NCCCc1ccc(Cl)cc1 (centres unmarked) [Compound 125] | 8.58 ± 3.71 | – | – | 82 ± 12.7 | –
31 | CCC(Cc1ccccc1)NCCCc1ccc(O)cc1 (centres unmarked) [Compound 208] | – | > 400 | < 6 | – | –
32 | CC(Cc1ccccc1)NCCCc1ccc(C(F)(F)F)cc1 (centres unmarked) [Compound 195] | – | < 5.2 | > 240 | – | –
33 | CC(Cc1ccc(F)cc1)NCCCn1cccn1 (centres unmarked) [Compound 133] | – | < 5.2 | > 240 | – | –
34 | CC(Cc1ccc(Br)cc1)NCCCc1ccncc1 (centres unmarked) [Compound 175] | – | < 5.2 | > 240 | – | –
35 | OCC(Cc1ccc(F)cc1)NCCCc1ccc(F)cc1 (centres unmarked) [Compound 147] | 30.1 ± 14.2 | – | – | 1150 ± 417 | –
36 | COc1ccc(CC(C)NCCCc2ccc([N+](=O)[O-])cc2)cc1 (centres unmarked) [Compound 58] | 16.6 ± 3.99 | – | – | 42.3 ± 8.21 | –
37 | FCC(Cc1ccc(F)cc1)NCCCc1ccc(Cl)cc1 (centres unmarked) [Compound 151] | – | 22.6 | 54 | – | –
38 | CC(Cc1ccc(Cl)cc1)NCCCc1ccc([N+](=O)[O-])cc1 (centres unmarked) [Compound 64] | 16.4 ± 1.47 | – | – | 28.8 ± 13.7 | –
39 | Nc1ccc(CCCNC(CF)Cc2ccc(F)cc2)cc1 (centres unmarked) [Compound 108] | – | 9.6 | 132 | – | –
40 | FCC(Cc1ccc(F)cc1)NCCCc1ccccc1 (centres unmarked) [Compound 100] | 51.2 ± 12 | – | – | 7390 ± 1360 | –
41 | CC(Cc1ccc(Br)cc1)NCCCc1ccc(I)cc1 (centres unmarked) [Compound 181] | – | < 5.2 | > 240 | – | –
42 | COc1ccc(CCCNC(C)Cc2ccncc2)cc1 (centres unmarked) [Compound 172] | 186 ± 127 | 42.9 | 30 | – | –

Row | SMILES | Ki (VMAT2) [nM] | CLint scaled at 0.08 µM [1] [mL/min/kg] | half-life at 0.08 µM [1] [min] | Ki (hERG channel) [nM] | further results
43 | CC(=O)Nc1ccc(CCCNC(C)Cc2ccc(F)cc2)cc1 (centres unmarked) [Compound 67] | – | < 10 | > 240 | – | –
44 | FCC(Cc1ccc(F)cc1)NCCCc1ccc(F)cc1 (centres unmarked) [Compound 153] | – | 20.5 | 60 | – | –
45 | CC(Cc1ccc(-c2cccnc2)cc1)NCCCc1ccc(F)cc1 (centres unmarked) [Compound 193] | – | 144 | – | – | Microsomal stability assays: Half-life [1]: 6 min
46 | CC(Cc1ccc(F)cc1)NCCCc1ccc(N)cc1 (centres unmarked) [Compound 95] | – | 12.9 | 96 | – | –
47 | CC(Cc1ccc(F)cc1)NCCCc1ccncc1 (centres unmarked) [Compound 177] | – | < 5.2 | > 240 | – | –
48 | CC(Cc1ccc(NC=O)cc1)N(C=O)CCCc1ccc(F)cc1 (centres unmarked) [Compound 74] | 8.82 ± 2.05 | – | – | 831 ± 187 | –
49 | CC(Cc1ccc(Br)cc1)NCCCc1ccc(F)cc1 (centres unmarked) [Compound 201] | – | < 5.2 | > 240 | – | –
50 | FCC(Cc1ccccc1)NCCCc1ccccc1 (centres unmarked) [Compound 99] | – | 119 | 12 | – | –
51 | CC(Cc1ccc(F)c(F)c1)NCCCc1ccc(N)cc1 (centres unmarked) [Compound 61] | – | 9.6 | 132 | – | –
52 | CC(Cc1ccc(F)cc1)NCCCc1c[nH]c2ccccc12 (centres unmarked) [Compound 92] | – | 112 | 12 | – | –
53 | CC(Cc1ccc(F)cc1)NCCCn1ccnc1 (centres unmarked) [Compound 134] | 517 ± 112 | < 5.2 | > 240 | – | –
54 | CC(Cc1ccccc1)NCCCc1ccc(-c2cccnc2)cc1 (centres unmarked) [Compound 211] | – | > 400 | < 6 | – | –
55 | CC(C)C(Cc1ccc(F)cc1)NCCCc1ccc(Br)cc1 (centres unmarked) [Compound 140] | 132 ± 29.5 | 14.4 | 84 | – | –
56 | CC(Cc1ccc(F)cc1)NCCCc1ccc(N(C)C)cc1 (centres unmarked) [Compound 156] | 118 ± 25.8 | 182 | – | – | Microsomal stability assays: Half-life [1]: 6 min
57 | FCC(Cc1ccccc1)NCCCc1ccc(F)cc1 (centres unmarked) [Compound 102] | – | 33.9 | 36 | – | –
58 | OCC(Cc1ccc(F)cc1)NCCCc1ccncc1 (centres unmarked) [Compound 128] | – | – | – | – | CLint scaled at 0.08 µM [2]: < 10 mL/min/kg; half-life at 0.08 µM [2]: > 240 min
59 | CC(Cc1ccncc1)NCCCc1ccc(O)cc1 (centres unmarked) [Compound 179] | – | < 5.2 | > 240 | – | –
60 | CC(Cc1ccccc1)NCCCc1ccc(S)cc1 (centres unmarked) [Compound 217] | – | – | – | – | Microsomal stability assays: Clearance [2]: 170 mL/min/kg
61 | CC(Cc1ccc(F)c(F)c1)NCCCc1ccc([N+](=O)[O-])cc1 (centres unmarked) [Compound 59] | 13.1 ± 2.87 | – | – | 55.6 ± 7.7 | –
62 | CC(Cc1ccc([N+](=O)[O-])cc1)NCCCc1ccccc1 (centres unmarked) [Compound 116] | – | – | – | – | CLint scaled at 0.08 µM [2]: > 400 mL/min/kg; half-life at 0.08 µM [2]: < 6 min
